Legend:
[1] = target: T1, RAC-beta serine/threonine-protein kinase (Homo sapiens, UniProt P31751); assay: Inhibition of Akt2
[2] = target: T2, RAC-alpha serine/threonine-protein kinase (Homo sapiens, UniProt P31749); assay: Inhibition of Akt1
[3] = target: T2, RAC-alpha serine/threonine-protein kinase; assay: Inhibition of Akt1 by cellular assay
[4] = target: T1, RAC-beta serine/threonine-protein kinase; assay: Inhibition of Akt2 by cellular assay
[5] = target: Voltage-gated inwardly rectifying potassium channel KCNH2 (Homo sapiens, UniProt Q12809); assay: Inhibition of human ERG in embryonic kidney cells by radioligand-binding competition assay
Chain of Voltage-gated inwardly rectifying potassium channel KCNH2 (Q12809 whole entry): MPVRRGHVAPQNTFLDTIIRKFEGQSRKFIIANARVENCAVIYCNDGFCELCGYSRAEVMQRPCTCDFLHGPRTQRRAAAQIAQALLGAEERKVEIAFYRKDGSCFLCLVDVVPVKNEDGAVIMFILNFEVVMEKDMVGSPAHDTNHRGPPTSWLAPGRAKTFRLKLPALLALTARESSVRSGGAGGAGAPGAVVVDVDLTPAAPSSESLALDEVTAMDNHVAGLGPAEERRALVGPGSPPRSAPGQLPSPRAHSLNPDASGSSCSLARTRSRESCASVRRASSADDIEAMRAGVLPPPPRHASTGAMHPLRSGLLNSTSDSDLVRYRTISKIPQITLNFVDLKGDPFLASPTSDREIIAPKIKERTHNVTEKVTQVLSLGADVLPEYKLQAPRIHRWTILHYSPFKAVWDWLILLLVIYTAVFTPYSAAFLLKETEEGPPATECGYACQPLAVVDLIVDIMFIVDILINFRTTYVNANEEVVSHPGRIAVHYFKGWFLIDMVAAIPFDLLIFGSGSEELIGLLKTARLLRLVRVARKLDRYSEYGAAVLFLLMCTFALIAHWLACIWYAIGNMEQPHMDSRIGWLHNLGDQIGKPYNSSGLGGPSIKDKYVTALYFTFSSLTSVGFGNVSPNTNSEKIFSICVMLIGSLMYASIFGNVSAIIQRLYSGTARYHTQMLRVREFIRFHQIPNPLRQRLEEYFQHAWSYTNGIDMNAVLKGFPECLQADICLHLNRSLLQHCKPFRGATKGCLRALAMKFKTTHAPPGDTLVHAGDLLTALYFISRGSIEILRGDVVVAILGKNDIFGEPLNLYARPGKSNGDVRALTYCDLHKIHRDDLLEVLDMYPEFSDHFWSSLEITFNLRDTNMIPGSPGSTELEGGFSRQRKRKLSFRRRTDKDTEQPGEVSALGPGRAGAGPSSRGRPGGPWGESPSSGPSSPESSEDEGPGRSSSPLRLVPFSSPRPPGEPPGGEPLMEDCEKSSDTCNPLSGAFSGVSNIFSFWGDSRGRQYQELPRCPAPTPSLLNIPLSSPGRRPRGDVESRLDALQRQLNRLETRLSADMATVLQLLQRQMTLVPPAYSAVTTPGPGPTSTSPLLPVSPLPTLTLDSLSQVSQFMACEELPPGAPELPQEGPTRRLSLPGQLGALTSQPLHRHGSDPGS

T1 sequence (P31751 whole entry): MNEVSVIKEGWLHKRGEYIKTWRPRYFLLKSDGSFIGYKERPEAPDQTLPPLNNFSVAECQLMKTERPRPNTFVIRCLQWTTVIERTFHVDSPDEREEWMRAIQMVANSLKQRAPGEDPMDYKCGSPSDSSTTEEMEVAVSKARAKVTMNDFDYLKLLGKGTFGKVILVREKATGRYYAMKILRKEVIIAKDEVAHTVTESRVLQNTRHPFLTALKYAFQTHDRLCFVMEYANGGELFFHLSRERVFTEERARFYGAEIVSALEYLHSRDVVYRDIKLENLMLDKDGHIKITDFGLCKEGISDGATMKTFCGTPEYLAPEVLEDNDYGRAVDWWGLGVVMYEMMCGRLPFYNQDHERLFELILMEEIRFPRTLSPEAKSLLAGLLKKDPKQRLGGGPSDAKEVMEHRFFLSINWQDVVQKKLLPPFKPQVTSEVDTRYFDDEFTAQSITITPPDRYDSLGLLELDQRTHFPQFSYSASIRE
T2 sequence (P31749 whole entry): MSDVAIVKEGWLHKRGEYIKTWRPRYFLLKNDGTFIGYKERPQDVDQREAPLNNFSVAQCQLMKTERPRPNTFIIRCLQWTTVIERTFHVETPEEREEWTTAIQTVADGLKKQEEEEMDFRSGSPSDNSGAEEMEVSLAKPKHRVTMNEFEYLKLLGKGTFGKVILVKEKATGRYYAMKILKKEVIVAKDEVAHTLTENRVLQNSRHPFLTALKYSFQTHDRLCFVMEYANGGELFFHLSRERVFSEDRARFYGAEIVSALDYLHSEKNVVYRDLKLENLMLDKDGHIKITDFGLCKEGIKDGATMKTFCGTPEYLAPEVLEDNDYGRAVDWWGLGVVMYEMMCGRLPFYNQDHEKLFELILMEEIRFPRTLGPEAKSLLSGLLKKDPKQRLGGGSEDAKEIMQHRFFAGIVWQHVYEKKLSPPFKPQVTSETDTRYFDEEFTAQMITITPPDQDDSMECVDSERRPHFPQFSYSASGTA

SMILES | IC50 [1] [nM] | IC50 [2] [nM] | IC50 [3] [nM] | IC50 [4] [nM] | IC50 [5] [nM]
O=C1NCCc2nc(-c3ccc(CN4CCC(c5nnc(-c6ccccn6)[nH]5)CC4)cc3)c(-c3ccccc3)cc21 | 26 | 3.5 | 16 | 224 | 2500
[O-][n+]1ccc(-c2nnc(C3CCN(Cc4ccc(-c5nc6nc(N7CCN(CCO)CC7)ncc6cc5-c5ccccc5)cc4)CC3)[nH]2)cc1 |  |  | 67 | 146 | > 10000
OCCN1CCN(c2ccc3nc(-c4ccccc4)c(-c4ccc(CN5CCC(c6nc(-c7ncccn7)n[nH]6)CC5)cc4)nc3n2)CC1 |  |  | 72 | 190 | 
CN(C)CCN1CCN(c2ncc3cc(-c4ccccc4)c(-c4ccc(CN5CCC(c6nnc(-c7ncccn7)[nH]6)CC5)cc4)nc3n2)CC1 |  |  | 35 | 130 | 4800
CN(C)CCN1CCN(c2ccc3nc(-c4ccccc4)c(-c4ccc(CN5CCC(c6nnc(-c7ccccn7)[nH]6)CC5)cc4)nc3n2)CC1 |  |  | 10 | 43 | 
O=c1ccc(-c2nnc(C3CCN(Cc4ccc(-c5nc6cc[nH]c(=O)c6cc5-c5ccccc5)cc4)CC3)[nH]2)c[nH]1 | 8 | 1 | 62 | 284 | > 10000
COc1ccc(-c2nnc(C3CCN(Cc4ccc(-c5nc6cc[nH]c(=O)c6cc5-c5ccccc5)cc4)CC3)[nH]2)cn1 | 16 | 3 | 40 | 159 | 1220
CN(C)CCN1CCN(c2ncc3cc(-c4ccccc4)c(-c4ccc(CN5CCC(c6nnc(-c7ccccn7)[nH]6)CC5)cc4)nc3n2)CC1 | 4 | 4 | 10 | 39 | 2100
CN1CCN(c2ncc3cc(-c4ccccc4)c(-c4ccc(CN5CCC(c6nnc(-c7ncccn7)[nH]6)CC5)cc4)nc3n2)CC1 |  |  | 25 | 40 | 
CN(C)CCN1CCN(c2ccc3nc(-c4ccccc4)c(-c4ccc(CN5CCC(c6nc(-c7ncccn7)n[nH]6)CC5)cc4)nc3n2)CC1 |  |  | 104 | 116 | > 10000
CN1CCN(c2ccc3nc(-c4ccccc4)c(-c4ccc(CN5CCC(c6nnc(-c7ccc(N)nc7)[nH]6)CC5)cc4)nc3n2)CC1 |  |  | 70 | 225 | 
O=c1[nH]ccc2nc(-c3ccc(CN4CCC(c5nnc(-c6ncccn6)[nH]5)CC4)cc3)c(-c3ccccc3)cc12 | 44 | 7 | 23 | 69 | > 10000
CN1CCN(c2ccc3nc(-c4ccccc4)c(-c4ccc(CN5CCC(c6nnc(-c7ccccn7)[nH]6)CC5)cc4)nc3n2)CC1 |  |  | 18 | 92 | 
OCCN1CCN(c2ccc3nc(-c4ccccc4)c(-c4ccc(CN5CCC(c6nnc(-c7ccccn7)[nH]6)CC5)cc4)nc3n2)CC1 |  |  | 13 | 48 | 
CN(C)CCN1CCN(c2ncc3cc(-c4ccccc4)c(-c4ccc(CN5CCC(c6nnc(-c7ccc(N)nc7)[nH]6)CC5)cc4)nc3n2)CC1 |  |  | 37 | 140 | 
Nc1ccc(-c2nnc(C3CCN(Cc4ccc(-c5nc6nc(N7CCN(CCO)CC7)ccc6nc5-c5ccccc5)cc4)CC3)[nH]2)cn1 |  |  | 115 | 230 | 
CN1CCN(c2ncc3cc(-c4ccccc4)c(-c4ccc(CN5CCC(c6nnc(-c7ccc(N)nc7)[nH]6)CC5)cc4)nc3n2)CC1 |  |  | 20 | 84 | 6100
Nc1ccc(-c2nnc(C3CCN(Cc4ccc(-c5nc6cc[nH]c(=O)c6cc5-c5ccccc5)cc4)CC3)[nH]2)cn1 | 33 | 4 | 26 | 165 | 10000
O=c1[nH]ccc2nc(-c3ccc(CN4CCC(c5nnc(-c6cnccn6)[nH]5)CC4)cc3)c(-c3ccccc3)cc12 | 21 | 4 | 44 | 405 | 
O=c1ccc(-c2nnc(C3CCN(Cc4ccc(-c5nc6nc(N7CCN(CCO)CC7)ncc6cc5-c5ccccc5)cc4)CC3)[nH]2)c[nH]1 |  |  | 127 | 284 | 6800
CN(C)CCN1CCN(c2ncc3cc(-c4ccccc4)c(-c4ccc(CN5CCC(c6nnc(-c7ccc(=O)[nH]c7)[nH]6)CC5)cc4)nc3n2)CC1 |  |  | 69 | 98 | 800
CN1CCN(c2ccc3nc(-c4ccccc4)c(-c4ccc(CN5CCC(c6nnc(-c7ncccn7)[nH]6)CC5)cc4)nc3n2)CC1 |  |  | 52 | 192 | 
CN(C)CCN1CCN(c2ncc3cc(-c4ccccc4)c(-c4ccc(CN5CCC(c6nnc(-c7cc[n+]([O-])cc7)[nH]6)CC5)cc4)nc3n2)CC1 |  |  | 33 | 68 | 7900
CN1CCN(c2ncc3cc(-c4ccccc4)c(-c4ccc(CN5CCC(c6nnc(-c7cc[n+]([O-])cc7)[nH]6)CC5)cc4)nc3n2)CC1 |  |  | 88 | 185 | 9800
CN1CCN(c2ncc3cc(-c4ccccc4)c(-c4ccc(CN5CCC(c6nnc(-c7ccc(=O)[nH]c7)[nH]6)CC5)cc4)nc3n2)CC1 |  |  | 71 | 188 | 
OCCN1CCN(c2ncc3cc(-c4ccccc4)c(-c4ccc(CN5CCC(c6nc(-c7ncccn7)n[nH]6)CC5)cc4)nc3n2)CC1 |  |  | 37 | 80 | > 10000
Nc1ccc(-c2nnc(C3CCN(Cc4ccc(-c5nc6nc(N7CCN(CCO)CC7)ncc6cc5-c5ccccc5)cc4)CC3)[nH]2)cn1 |  |  | 38 | 180 | 
CN1CCN(c2ccc3nc(-c4ccc(CN5CCC(c6nnc(-c7ccccn7)[nH]6)CC5)cc4)c(-c4ccccc4)nc3n2)CC1 |  |  | 1410 | 827 | 

Reference: ChEMBL document CHEMBL1157525, “The design and synthesis of potent and cell-active allosteric dual Akt 1 and 2 inhibitors devoid of hERG activity” (Bioorg Med Chem Lett, 2008)
